Experimental findings from US11684606B2, “Methods of treating generalized pustular psoriasis with an antagonist of CCR6 or CXCR2” (CHEMOCENTRYX, INC., priority 2018, dated 2023) are described below.

Values after ≈ are worked out from the molar mass of the structure shown. “Also recorded” adds a separate entry of the source. Bounds are passed on as bounds.

For data set [1], the target named is T1, mCXCR2 (Mus musculus, UniProt P35343).
T1 construct: endogenous in cells; host or cells: mouse bone marrow cells (from the earlier reading's assay name)
T1 sequence (P35343 1-359): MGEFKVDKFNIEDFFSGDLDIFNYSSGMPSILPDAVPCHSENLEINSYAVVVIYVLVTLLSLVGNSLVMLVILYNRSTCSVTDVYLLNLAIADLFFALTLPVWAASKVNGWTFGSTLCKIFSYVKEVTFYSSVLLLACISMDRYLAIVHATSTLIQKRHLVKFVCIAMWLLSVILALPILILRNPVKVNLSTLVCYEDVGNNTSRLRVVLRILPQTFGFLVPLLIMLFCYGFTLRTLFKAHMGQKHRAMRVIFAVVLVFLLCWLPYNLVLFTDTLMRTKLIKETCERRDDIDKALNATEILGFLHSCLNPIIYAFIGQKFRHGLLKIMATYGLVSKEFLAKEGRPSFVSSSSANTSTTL
The data set can be described thus: In vitro inhibition of chemotaxis, mouse bone marrow cells to mCXCL1. It counts as cell-based. Particulars: in 100% serum. The procedure:
For in vitro determination of chemokine receptor inhibitor activity, Compound 1.136 was dissolved in DMSO to generate a stock concentration of 10 mM that was further diluted in chemotaxis migration buffer (HBSS, 1% BSA, 1% HEPES) to create a 10-point inhibitor gradient ranging from 100 nM-0.01 nM. Migration assay was then run in 100% mouse serum in response to rmCCL20 for CCR6 activity or rmCXCL1 for CXCR2 activity using ChemoTx plates (Neuroprobe, Gaithersburg Md.) and assessed by fluorescence staining of migrated cells with CyQuant (Thermo Fisher).

Data set [2] has as its target T2, mCCR4 (Mus musculus, UniProt P51680).
T2 construct: expressed in transfected cells; host or cells: BaF3 cells (from the earlier reading's assay name)
T2 sequence (P51680 1-360): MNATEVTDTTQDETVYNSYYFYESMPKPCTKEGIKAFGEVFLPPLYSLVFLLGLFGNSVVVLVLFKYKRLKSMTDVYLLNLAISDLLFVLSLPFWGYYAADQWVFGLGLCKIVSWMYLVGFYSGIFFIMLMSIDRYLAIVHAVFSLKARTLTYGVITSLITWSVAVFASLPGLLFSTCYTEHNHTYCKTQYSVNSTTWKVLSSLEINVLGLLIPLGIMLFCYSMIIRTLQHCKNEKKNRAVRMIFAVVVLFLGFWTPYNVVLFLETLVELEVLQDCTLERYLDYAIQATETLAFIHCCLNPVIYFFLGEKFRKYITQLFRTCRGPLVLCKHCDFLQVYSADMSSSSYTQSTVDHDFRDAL
The data set can be described thus: Chemotaxis of mCCR4-transfected BaF3 cells to mCCL22. It is filed as cell-based. Conditions: A2 value, unit not given.

In data set [3] the target is T3, mCCR5 (Mus musculus, UniProt P51682).
T3 construct: expressed in transfected cells; host or cells: BaF3 cells (from the earlier reading's assay name)
As to the kind of experiment: Chemotaxis of mCCR5-transfected BaF3 cells to mCCL5. It counts as cell-based. Conditions: in serum; unit inferred.

For data set [4], the target named is T4, mCCR7 (Mus musculus, UniProt P47774).
T4 construct: endogenous in cells; host or cells: mouse splenocytes (from the earlier reading's assay name)
T4 sequence (P47774 25-378): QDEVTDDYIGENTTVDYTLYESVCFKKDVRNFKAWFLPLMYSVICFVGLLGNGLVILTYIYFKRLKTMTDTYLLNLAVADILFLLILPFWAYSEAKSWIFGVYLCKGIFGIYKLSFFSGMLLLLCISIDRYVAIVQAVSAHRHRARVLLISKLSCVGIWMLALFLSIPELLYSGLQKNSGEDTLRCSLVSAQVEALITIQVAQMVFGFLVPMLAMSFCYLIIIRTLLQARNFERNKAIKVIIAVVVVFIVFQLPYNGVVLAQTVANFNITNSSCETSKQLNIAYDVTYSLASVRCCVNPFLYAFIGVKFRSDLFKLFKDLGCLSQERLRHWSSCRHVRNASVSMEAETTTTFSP
As to the kind of experiment: Chemotaxis of mouse splenocytes to mCCL19. It is filed as cell-based. Particulars: in serum; unit inferred.

For data set [5], the target named is T5, mCXCR4 (Mus musculus, UniProt P70658).
T5 construct: endogenous in cells; host or cells: mouse BaF3-WT cells (from the earlier reading's assay name)
The data set can be described thus: Chemotaxis of mouse BaF3-WT to mCXCL12. It is filed as cell-based. Conditions: in serum; unit inferred.

Data set [6] is described as follows: Plasma concentrations at trough after s.c. q.d. dosing. It is filed as in vivo. Particulars: Balb/c, mouse, subcutaneous, 24 hours post final dose (day 5), mice. How it is done:
(§1) For in vivo dosing, mice were dosed subcutaneously with Compound 1.136 once daily (s.c. q.d. in 1% HPMC) at 90 mg/kg unless stated otherwise, starting at day 0 of a study. The in vivo dose was predicted based on in vitro potency and the pharmacokinetic response to a single dose in mice. The minimum antagonist concentration (at trough) to fully cover a gradient-sensing chemoattractant receptor has been determined to correspond with the IC90 concentration (Schall, T. J., and A. E. Proudfoot. 2011. Overcoming hurdles in developing successful drugs targeting chemokine receptors. Nat Rev Immunol 11: 355-363).

Data set [7] has as its system CD4 T cells, neutrophils and inflammatory dendritic cells within IL-36-treated skin. As to the kind of experiment: Flow cytometry of leukocytes accumulating in IL-36-treated skin. It counts as in vivo, mouse. Conditions: after 4 daily IL-36α ear injections; Compound 1.136 90 mg/kg/day s.c.; α-IL-17RA 200 μg/mouse/day i.p.; 90 mg/kg/day. The procedure: as §1
Flow cytometry of leukocytes. Ears or excised skin samples were digested in collagenase A and 1 U/ml DNAse I with agitation for 30 min at 37° C. Cells were then dislodged from skin, filtered through a […] sieve, washed and re-suspended in FACS buffer (PBS with 10% FBS) for analysis.
Directly conjugated Monoclonal antibodies were from R&D Systems (Minneapolis, Minn.), BioLegend (San Diego, Calif.), or eBioscience/ThermoFisher (San Diego, Calif.). CD45.2 (104) in AlexaFluor488, Ly6C (HK1.4) in PE, CD90.2 (30-H12) in Per CP-Cy5.5, TCRVγ4 (UC3-10A6) in PE-Cy7, TCRβ (H57-597) in APC, CD4 (GK1.5) in APC-eFluor-780, TCRγδ (GL3) in BV-421, LIVE/DEAD fixable Aqua stain (Molecular Probes, Eugene, Oreg.), CD11c (N418) in BV650, Ly6G (1A4) in BV711 and CD11b (M1/70) in BV785. Flow cytometry data were acquired with a Fortessa (BD Biosciences) cytometer and analyzed using FlowJo v10.2

T3 sequence (P51682 whole entry): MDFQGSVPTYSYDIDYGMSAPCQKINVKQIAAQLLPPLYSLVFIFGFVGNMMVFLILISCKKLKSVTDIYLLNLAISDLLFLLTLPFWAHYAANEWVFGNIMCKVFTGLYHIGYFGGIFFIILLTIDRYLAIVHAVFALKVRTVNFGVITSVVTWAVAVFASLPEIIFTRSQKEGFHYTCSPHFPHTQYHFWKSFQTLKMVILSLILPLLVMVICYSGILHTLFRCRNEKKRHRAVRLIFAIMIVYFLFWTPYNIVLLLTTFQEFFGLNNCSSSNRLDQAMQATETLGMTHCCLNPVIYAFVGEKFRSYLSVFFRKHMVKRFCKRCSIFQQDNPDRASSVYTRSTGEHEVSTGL
T5 sequence (P70658 whole entry): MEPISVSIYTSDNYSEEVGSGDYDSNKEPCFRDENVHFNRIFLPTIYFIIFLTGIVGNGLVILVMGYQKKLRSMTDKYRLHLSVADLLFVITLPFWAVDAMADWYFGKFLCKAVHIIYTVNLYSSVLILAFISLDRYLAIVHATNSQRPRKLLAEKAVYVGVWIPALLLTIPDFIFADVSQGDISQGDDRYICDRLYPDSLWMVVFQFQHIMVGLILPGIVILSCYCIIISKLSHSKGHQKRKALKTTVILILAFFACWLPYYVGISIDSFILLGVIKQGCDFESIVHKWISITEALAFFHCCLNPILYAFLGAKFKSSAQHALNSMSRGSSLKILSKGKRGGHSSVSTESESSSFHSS

By IC50 is commonly meant the concentration that gives 50% inhibition. By IC90 is commonly meant the concentration needed for an effect of 90%. For the molecule `CCC(C)(C)[C@@H](Nc1c(Nc2c(F)ccc3c2C(=O)N[C@H]3C)c(=O)c1=O)c1ccc(C)o1` [Compound 1.136], the IC50 in data set [1] (read-out: IC50 on mouse CXCR2, in vitro inhibition of chemotaxis) is 0.02 µM; in data set [3] it was above 10 µM; in data set [4], 6 µM; in data set [5], above 10 µM. In addition, the IC90 in data set [1] (read-out: IC90 for CXCR2 inhibition) turned out to be 0.145 µg/mL (≈ 0.33 µM). Moreover, the “A2 for chemotaxis of mCCR4-transfected BaF3 cells to mCCL22 in serum” value in data set [2] is recorded as >10,000. In addition, the concentration at 24 h amounted to 267 ± 18 ng/mL in data set [6] (30 mg/kg s.c. q.d. in 1% HPMC), 323 ± 20 ng/mL in data set [6] (60 mg/kg s.c. q.d. in 1% HPMC) and 973 ± 19 ng/mL in data set [6] (90 mg/kg s.c. q.d. in 1% HPMC). The “Accumulation of CD4+ T cells within IL-36-treated skin” value in data set [7] is listed as “significantly reduced the accumulation; also recorded: significantly reduces accumulation”. The “Accumulation of inflammatory dendritic cells (iDC) within IL-36-treated skin” value in data set [7] is on record as “significantly reduced the accumulation; also recorded: significantly reduces accumulation”. Also, the “Accumulation of neutrophils within IL-36-treated skin” value in data set [7] was “significantly reduced the accumulation; also recorded: significantly reduces accumulation”.
